Test results taken from ChEMBL document CHEMBL3430912, “GSK Tres Cantos Anti-Kinetoplastid Screening (TCAKS) Data”.

What was measured:
Trypanosoma cruzi [1] = assay: GSK_TCAKS: pIC50 Trypanosoma cruzi viability assay using beta-GAL activity. This assay was run at single shot at 5uM compound concentration per well. The biological reagents consisted of NIH-3T3 host cells and trypomastigotes parasitic cells; both cell types were set to a 3.3 * 10^5 cells/mL dilution in assay DMEM by means of a CASY cell counter device using a 60um capillary. 6 uL of the mixture were dispensed per well (about 1 * 10^3 host-cells and 1 * 10^3 parasites) with a Multidrop Combi dispenser. […] In all wells, the percentage of DMSO never exceeded 0.5%. Plates incubated for four days at 37C, 5% CO2. The substrate used for the assay fluorescence intensity (FLINT) readout was resorufin-beta-D-galactopiranoside (Sigma-Aldrich) at 5uM per well. It was diluted in PBS supplemented with the soft detergent Igepal (Fluka).; assay type: functional, organism-based, Mus musculus; details: Tulahuen, NIH3T3
Trypanosoma cruzi [2] = assay: (§1) GSK_TCAKS: pIC50 Trypanosoma cruzi Imaging: Infected Cells. […] Cells were then washed once with PBS before infection. T. cruzi trypomastigotes, collected at days 5 to 8 after infection from LLC-MK2 parasite infected cultures, were allowed to swim out for 4h at 37C from a centrifuged pellet (2,500 rpm/10 min/room temperature). Trypomastigotes were then collected and counted in a CASY Cell Counter. Trypomastigotes, in supplemented DMEM, were added to H9c2 cultures in a multiplicity of infection of 1 and incubated for 18 h. Cells were washed once with PBS before incubation of the infected H9c2 monolayer with trypsin (Life-Technologies) to detach cells from the flask. Cells were counted in a CASY Cell Counter using a 150 um capillary and their density set at 5 * 10^4 cells per mL in supplemented assay DMEM. Infected H9c2 were dispensed into 384-well poly-lysine coated assay plates at 50uL per well using a Multidrop Combi dispenser. After seeding them, the plates were incubated at 37C, 5% CO2 for 72h. Cultures were then fixed and stained by addition of 50 uL of a solution containing 8% formaldehyde and 4 uM DRAQ5 DNA dye (BioStatus, UK) per well. […] Five images were collected per well for reliable statistical analysis. Automated image analysis was performed with a script developed on Acapella High Content Imaging and Analysis Software (PerkinElmer). Output: percentage of infected cells per well as a second infection marker.; assay type: functional, organism-based, Rattus norvegicus; details: H9c2, 4 h
Trypanosoma cruzi [3] = assay: GSK_TCAKS: pIC50 Trypanosoma cruzi Imaging: Amastigotes/Cell. […] Cells were then washed once with PBS before infection. T. cruzi trypomastigotes, collected at days 5 to 8 after infection from LLC-MK2 parasite infected cultures, were allowed to swim out for 4h at 37C from a centrifuged pellet (2,500 rpm/10 min/room temperature). Trypomastigotes were then collected and counted in a CASY Cell Counter. Trypomastigotes, in supplemented DMEM, were added to H9c2 cultures in a multiplicity of infection of 1 and incubated for 18 h. Cells were washed once with PBS before incubation of the infected H9c2 monolayer with trypsin (Life-Technologies) to detach cells from the flask. Cells were counted in a CASY Cell Counter using a 150 um capillary and their density set at 5 * 10^4 cells per mL in supplemented assay DMEM. Infected H9c2 were dispensed into 384-well poly-lysine coated assay plates at 50uL per well using a Multidrop Combi dispenser. After seeding them, the plates were incubated at 37C, 5% CO2 for 72h. Cultures were then fixed and stained by addition of 50 uL of a solution containing 8% formaldehyde and 4 uM DRAQ5 DNA dye (BioStatus, UK) per well. […] Five images were collected per well for reliable statistical analysis. Automated image analysis was performed with a script developed on Acapella High Content Imaging and Analysis Software (PerkinElmer). Output: number of amastigotes per cell as infection level measurement.; assay type: functional, organism-based, Rattus norvegicus; details: H9c2, 4 h
Trypanosoma cruzi [4] = assay: as §1, with “H2C9” for “Trypanosoma cruzi”, “H9c2 Host Cardiomyocytes.” for “Infected Cells.”, “Number” for “percentage”, “H9c2 Host Cardiomyocytes nuclei to determine drug-related cytotoxicity.” for “infected cells per well as a second infection marker.”; assay type: functional, organism-based, Rattus norvegicus; details: H9c2, 4 h
Leishmania donovani [5] = assay: GSK_TCAKS: pIC50 Leishmania donovani viability assay using fluorescence intensity. Assay plates (1536-well) were prepared by adding 30nL per well of compound. For single shot assay, the final compound concentration was 5uM. […] Briefly, eGFP LdBOB axenic amastigotes were harvested, fixed and counted in a CASY cell counter (Roche-Applied Science). A final concentration of 1.5 * 10^5 cells per well were prepared in amastigote media containing 500 U/mL penicillin/streptomycin (Invitrogen) and 6uL was dispensed to each experimental well using a Multidrop Combi dispenser (Thermo Scientific). 6uL of assay media was dispensed to control columns used as reference for 100% compound response. Following incubation for 72 h at 37C, 5% CO2, 2 uL of resazurin was added to each well at a final concentration of 0.5 mM in phosphate buffered saline (PBS) with IGEPAL (Sigma-Aldrich), 0.05% (v/v).; assay type: functional, organism-based
Leishmania donovani [6] = assay: (§2) GSK_TCAKS: pIC50 Leishmania donovani Imaging: Infected Macrophages. Assay plates (384-well) were prepared by adding 250nL of compound to each well. For single shot assay, the final compound concentration was 5 uM. […] Automated image analysis was performed with a script developed on Acapella High Content Imaging and Analysis Software (PerkinElmer). Output: Percent of infected macrophage cells were reported for each well.; assay type: functional, organism-based, Homo sapiens; details: THP-1
Leishmania donovani [7] = assay: as §2, with “Amastigotes/Macrophages.” for “Infected Macrophages.”, “Average number” for “Percent”, “amastigotes per” for “infected”, “cell” for “cells”; assay type: functional, organism-based, Homo sapiens; details: THP-1
Leishmania donovani [8] = assay: as §2, with “THP-1 Host” for “Infected”, “THP-1 cell count” for “Percent of infected macrophage cells”; assay type: functional, organism-based, Homo sapiens
[9] = test system: Trypanosoma brucei brucei; assay: GSK_TCAKS: pIC50 Trypanosoma brucei viability assay using fluorescence intensity. Assay plates (1536-well) were prepared by dispensing 25nL of compound solution per well using an Echo acoustic dispenser (Labcyte).; assay type: functional, organism-based; details: Lister 427, 2 h
[10] = test system: Trypanosoma brucei brucei; assay: GSK_TCAKS: pIC50 Trypanosoma brucei viability assay using luminiscence. Assay plates (1536-well) were prepared. T. brucei cultures were harvested and counted in a CASY cell counter. A parasite suspension was prepared at a final concentration of 5 * 10^4 cells/mL in complete HMI9 medium and 6uL was dispensed to all wells containing compounds using a Multidrop Combi dispenser. 6uL of HMI9 media with 0.4% DMSO were dispensed to control columns. Plates were incubated for 24 h at 37C, 5% CO2 then tempered for 10 min at room temperature. ATP content was quantified by adding 4 uL of CellTiter-Glo Reagent (Promega) according to the manufacturer's instructions. Luminescence was measured using a ViewLux.; assay type: functional, organism-based; details: Lister 427, CASY
[11] = GSK_TCAKS: pIC50 HepG2 human cell line viability assay using luminiscence. […] Seeding density was checked to ensure that new mono-layers were not more than 50% confluent at the time of harvesting. Cell suspension was added to 500 mL of the same medium at a final density of 1.2 * 10^5 cells/mL. This cell suspension was dispensed (25 uL, 3000 cells per well) into 384-well clear-bottom plates using a Multidrop Combi dispenser. Prior to addition of the cell suspension, the screening compounds (250 nL) were pre-dispensed into the plates with an Echo liquid handler. Plates were incubated for 48 h at 37C, 5% CO2. After incubation, plates equilibrated at room temperature for 30 min before proceeding to develop the luminescent signal. The signal developer, CellTiter-Glo Reagent, was allowed to equilibrate at room temperature for 30 min and added to the plates (25uL per well) using a Multidrop Combi dispenser. Plates were left for 10 min at room temperature for stabilization and then read using a ViewLux.; assay type: toxicity, cell-based
NIH3T3 = assay: GSK_TCAKS: pIC50 NIH 3T3 cell line viability assay using luminiscence. Tissue culture surface treated assay plates (1536-well) were used. […] The 100% cells survival control was determined exposing the host-cells to a 0.5% DMSO concentration, whereas the 100% toxicity control was achieved by seeding the cells in presence of Amphotericin B at 50uM. Plates were incubated for four days at 37C, 5% CO2. The assay readout was developed by addition of 5uL of CellTiter-Glo Reagent following the manufacturer's instructions. Luminiscence was measured using a ViewLux.; assay type: functional, cell-based; details: Mus musculus, NIH3T3, 96 h
[12] = target: Sterol 14-alpha demethylase (Trypanosoma cruzi (strain CL Brener), UniProt Q7Z1V1); assay: GSK_TCAKS: pIC50 CYP51 from Trypanosoma cruzi.; assay type: functional
Sterol 14-alpha demethylase, sequence (Q7Z1V1 whole entry): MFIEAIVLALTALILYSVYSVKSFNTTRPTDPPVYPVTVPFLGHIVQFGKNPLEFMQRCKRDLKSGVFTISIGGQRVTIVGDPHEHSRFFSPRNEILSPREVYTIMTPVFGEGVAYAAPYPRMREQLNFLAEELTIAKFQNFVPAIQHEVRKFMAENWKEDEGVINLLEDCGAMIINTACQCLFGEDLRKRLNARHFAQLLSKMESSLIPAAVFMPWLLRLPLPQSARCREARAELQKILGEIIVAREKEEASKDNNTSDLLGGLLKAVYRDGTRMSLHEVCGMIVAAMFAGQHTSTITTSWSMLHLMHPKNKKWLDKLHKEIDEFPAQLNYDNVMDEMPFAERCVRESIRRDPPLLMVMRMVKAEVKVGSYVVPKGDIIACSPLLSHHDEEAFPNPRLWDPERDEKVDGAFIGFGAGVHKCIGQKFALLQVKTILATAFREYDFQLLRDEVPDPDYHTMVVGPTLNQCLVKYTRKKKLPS

| SMILES | IC50 (Trypanosoma cruzi [1]) | IC50 (Trypanosoma cruzi [2]) | IC50 (Trypanosoma cruzi [3]) | IC50 (Trypanosoma cruzi [4]) | IC50 (Leishmania donovani [5]) | IC50 (Leishmania donovani [6]) | IC50 (Leishmania donovani [7]) | IC50 (Leishmania donovani [8]) | IC50 [9] | IC50 [10] | IC50 at 48 h [11] | IC50 (NIH3T3) | IC50 [12] |
| --- | --- | --- | --- | --- | --- | --- | --- | --- | --- | --- | --- | --- | --- |
| CC1(Oc2cncc(Cl)c2)CCN(Cc2cc3ccccc3[nH]2)C1 (stereo unspecified) | 1 µM | 1.58 µM | 1 µM | 10 µM | > 50.1 µM | 20 µM | 31.6 µM | 31.6 µM | > 39.8 µM | > 39.8 µM | 31.6 µM | 10 µM | 10 µM |
| COc1ccc(NS(=O)(=O)c2cc(NC(=O)c3ccc([N+](=O)[O-])s3)ccc2OC)cc1 | 0.0708 µM | 0.1 µM | 0.0794 µM | > 50.1 µM | 0.501 µM | 0.794 µM | 0.794 µM | 12.6 µM | 0.0501 µM | 0.126 µM | > 100 µM | > 50.1 µM | 1 µM |
| CC(=O)Nc1ccc(-c2csc(NC(=O)c3ccc([N+](=O)[O-])s3)n2)cc1 | 0.126 µM | 0.126 µM | 0.1 µM | 5.01 µM | 0.398 µM | 1 µM | 0.794 µM | 12.6 µM | 0.0251 µM | 0.158 µM | 50.1 µM | 6.31 µM | 6.31 µM |
| N#Cc1cccc(CN2CCC(N(Cc3cccnc3)C(=O)c3cc(F)c(F)cc3F)CC2)c1 | 0.398 µM | 0.398 µM | 0.316 µM | > 50.1 µM | > 50.1 µM | > 50.1 µM | 12.6 µM | > 50.1 µM | > 39.8 µM | > 39.8 µM | > 100 µM | 20 µM | 0.0501 µM |
| N#Cc1cccc(CN2CCC(c3nc(-c4ccc(C(F)(F)F)nc4)no3)CC2)c1 | 2 µM | 2 µM | 2.51 µM | > 50.1 µM | 12.6 µM | > 50.1 µM | > 50.1 µM | > 50.1 µM | > 39.8 µM | > 39.8 µM | > 100 µM | > 50.1 µM | > 100 µM |
| COc1ccc(-c2nc3ccncc3c(=O)n2CCOc2ccccc2)cc1 | 0.631 µM | 0.398 µM | 0.398 µM | > 50.1 µM | 39.8 µM | > 50.1 µM | > 50.1 µM | > 50.1 µM | 25.1 µM | 31.6 µM | > 100 µM | 31.6 µM | 0.0398 µM |
| Cc1cccc(N2CCCN(Cc3c[nH]c4ccccc34)CC2)n1 | 0.316 µM | 0.398 µM | 0.316 µM | 2.51 µM | > 50.1 µM | 10 µM | 10 µM | 10 µM | 12.6 µM | 12.6 µM | 12.6 µM | 25.1 µM | > 100 µM |
